Data from patent US20020132030A1, “Composition and method for prolonging the useful life of enteral feeding tubes” (priority 1999, published 2002).

What was measured:
[1] = test system: 6 different organisms: A. niger, B. stearotherm, C. albicans, E. cloacae, L. Leichmanii, and S. aureus; test: Challenge study using combinations, overall summary over all organisms, Example 2; type: cell-based; conditions: for synergistic effect: in combination with one of the parabens
Description: (§1) A challenge study is done on commercially sterile product containing combinations of 4 GRAS antimicrobial agents: methyl paraben, propyl paraben, diacetyl, and natamycin. Ten different matrices are tested against 6 different organisms: A. niger, B. stearotherm, C. albicans, E. cloacae, L. Leichmanii, and S. aureus.

[2] = test system: Bacillus stearothermophilus; test: Challenge study using combinations of 4 GRAS antimicrobial agents, Example 2; type: cell-based
Description: as §1

[3] = test system: Candida albicans; test: as above; type: cell-based; conditions: 0.2%
Description: as §1

[4] = test system: Enterobacter cloacae; test: as above; type: cell-based; conditions: 0.2%
Description: as §1

[5] = test system: Aspergillus niger; test: as above; type: cell-based; conditions: for effectiveness against growth of Aspergillus niger: 0.2%
Description: as §1

[6] = test system: Lactobacillus leichmanni; test: as above; type: cell-based; conditions: 0.2%
Description: as §1

[7] = test system: Enterobacter cloacae; test: Paraben challenge in commercially sterile product (Isosource), Example 1; type: cell-based; conditions: 0.1% in Isosource; for Inhibition of Enterobacter cloacae: 24 hours
Description: (§2) Commercially sterile product (Isosource®) with 0.1% methyl or propyl paraben is prepared. Organisms were challenged in both variations at their optimum growth temperature and room temperature (RT). The populations are determined at different time intervals and compared to a spiked control without the parabens.

[8] = test system: Aspergillus niger; test: Challenge of propyl paraben, sodium benzoate, potassium sorbate singly and in combinations in Isosource HN, Example 4; type: cell-based
Description: (§3) The antimicrobials, propyl paraben, sodium benzoate, and potassium sorbate are challenged singly, and in combinations, against 5 organisms.
(§4) Isosource HN® is packaged and retorted with the allowable FDA limits. Three samples, A, B, or C are prepared, having, respectively, 0.13% propyl paraben (A), 0.1% sodium benzoate (B), and 0.1% potassium sorbate (C). Additional samples D, E, and F are mixtures of A & B, A & C, and A & B & C. Three control samples: G having 0.26% ethanol; H having no preservatives and 1, a blank control are also prepared. A 350-ml aliquot of each retorted product is transferred to a sterile flask and inoculated with one of the designated organisms. A like trial is initiated for each of five organisms, Aspergillus niger, Candida albicans, Enterobacter cloacae, Staphylococcus aureus, and Lactobacillus delbrueckii. These organisms are inoculated, respectively, at 44 organisms/ml product; 2 organisms/ml product; 2 organisms/ml product; 4.1 organisms/ml product, and 30 organisms/ml product. An ethanol control is included for all the tests because it is used as the solvent carrier for paraben. An inoculated control with no inhibitors is also used for comparison. The samples are incubated at the appropriate temperature for optimum growth, and aliquots are pulled for testing at the designated intervals. Results are read and recorded as the population per milliliter of sample tested.

[9] = test system: Staphylococus aureus; test: Challenge study using combinations of 4 GRAS antimicrobial agents, Example 2; type: cell-based
Description: as §1

[10] = test system: Candida albicans; test: Feeding tube lifetime (clogging) test in vitro, Example 3; conditions: 0.1% in formula, feeding tube inoculated with 100 CFU Candida albicans, approximately 30° C.
Description: Feeding solution is perfused through a feeding tube and maintained at approximately 30° C. during the test, which may last several days or weeks. At the time the test is begun the solution within the feeding tube is inoculated with 100 CFU of Candida albicans. After a few hours of incubation (no flow in the tube), perfusion is started and continued until the tube becomes clogged due to overgrowth of the microorganisms.

[11] = test system: Candida albicans; test: Paraben challenge in commercially sterile product (Isosource), Example 1; type: cell-based; conditions: 0.1% in Isosource
Description: as §2

[12] = test system: 5 organisms; test: Challenge of three antimicrobials, overall summary over 5 organisms, Example 4; type: cell-based; conditions: 0.13% propyl paraben, 0.1% sodium benzoate, 0.1% potassium sorbate in Isosource HN
Description: as §3
as §4, with “The samples are incubated at the appropriate temperature for optimum growth, and aliquots are pulled for testing at the designated intervals.” left out

[13] = test system: Candida albicans; test: Challenge of propyl paraben, sodium benzoate, potassium sorbate singly and in combinations in Isosource HN, Example 4; type: cell-based; conditions: 0.13% propyl paraben, 0.1% sodium benzoate, 0.1% potassium sorbate in Isosource HN
Description: as §3, §4

[14] = test system: Enterobacter cloacae; test: as above; type: cell-based; conditions: 0.13% propyl paraben, 0.1% sodium benzoate, 0.1% potassium sorbate in Isosource HN
Description: as §3, §4

C[C@@H]1C/C=C/C=C/C=C/C=C/[C@H](O[C@@H]2O[C@H](C)[C@@H](O)[C@H](N)[C@@H]2O)C[C@@H]2O[C@](O)(C[C@@H](O)C[C@H]3O[C@@H]3/C=C/C(=O)O1)C[C@H](O)[C@H]2C(=O)O [natamycin]
effectiveness alone compared with the parabens ([1]; alone): not as effective alone as the parabens | synergistic effect [1]: does not contribute any synergistic effect

COC(=O)c1ccc(O)cc1 [methyl paraben]
inhibition of the other organisms ([1]; alone): slightly inhibitory on three others | inhibition of Bacillus stearothermophilus growth [2]: greatest amount of inhibition | effectiveness alone against Bacillus ([2]; alone, summary statement): very effective | inhibition of Candida albicans [3]: slight inhibitory effect | effect on Enterobacter cloacae growth ([4]; first 24 hours): slows growth slightly | effect on Enterobacter cloacae growth ([4]; otherwise (other than first 24 hours)): uninhibited | effectiveness against growth of Aspergillus niger [5]: most effective | effectiveness alone against Aspergillus ([5]; alone, summary statement): very effective | effectiveness against Lactobacillus leichmanni [6]: effective | Inhibition of Enterobacter cloacae ([7]; 35° C.): dramatic | difference in population compared to the control ([7]; 35° C., 48 hours): 0.5 logs | Inhibition of Enterobacter cloacae ([7]; room temperature): slight inhibition | growth lower than the propyl paraben sample ([7]; room temperature, 48 hours): 1.5 logs

CCCOC(=O)c1ccc(O)cc1 [propyl paraben]
organisms showing good inhibition ([1]; 0.2%): good inhibition of three out of the six organisms | overall inhibitory effectiveness among agents ([1]; 0.2%): most effective inhibitory agent overall | Aspergillus niger growth inhibition ([8]; 0.13% propyl paraben in Isosource HN, compared with the other antimicrobials): inhibited most | spore growth of Aspergillus niger ([8]; 7 days): do not exhibit spore growth | inhibition of Candida albicans [3]: good inhibition | effectiveness against growth of Aspergillus niger [5]: most effective | effectiveness against Lactobacillus leichmanni [6]: effective | inhibition against S. aureus ([9]; 0.2% propyl paraben, summary statement): slight inhibition | inhibitory effect on Staphylococus aureus ([9]; 0.2%, first 24 hours): slight inhibitory effect | extension of the time when clogging occurred beyond that attained with no paraben [10]: 1 to 2 weeks | lower CFU/ml of Candida albicans than the control ([11]; 7 days): 2-3 log cycle | difference in Candida albicans CFU/ml from the control ([11]; 14 days): < 2 logs | overall effectiveness over the five challenge organisms [12]: more effective against 4 of the organisms than either of the other 2 antimicrobials alone

C/C=C/C=C/C(=O)[O-].[K+] [Potassium sorbate, potassium sorbate]
inhibition of Candida albicans [13]: not effective | Inhibition of Enterobacter cloacae [14]: most effective agent alone

CC(=O)C(C)=O [diacetyl]
effectiveness alone compared with the parabens ([1]; alone): not as effective alone as the parabens | synergistic effect [1]: does not contribute any synergistic effect
